Patent EP4603105A1, “PHARMACEUTICAL COMPOSITION CONTAINING CYCLIC COMPOUND HAVING SELECTIVE KRAS INHIBITORY EFFECT AGAINST HRAS AND NRAS” (CHUGAI SEIYAKU KABUSHIKI KAISHA, priority 2022, dated 2024)
Like-named read-outs stand apart in the source and are kept apart here.

Legend:
HRAS wild-type protein = HRAS wild-type protein (Homo sapiens, UniProt P01112); assay: Binding to HRAS by surface plasmon resonance (SPR), KD and KD ratio to KRAS
Summary of the method: (§1)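 GDP-loaded biotinylated Avi-tag RAS proteins (E. coli-expressed) captured on a Biotin CAPture chip at ~100–300 RU; single-cycle kinetics at 30°C, 100 µL/min, 75 s injections of rising compound concentrations. HBS pH 7.4 running buffer with 1 mM DTT, 10 mM MgCl2, 10 µM GDP, 4% DMSO. KD from 1:1 binding fit.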

[1] = target: GDP-bound KRAS wild-type protein (Homo sapiens, UniProt P01116); assay: Binding to KRAS by surface plasmon resonance (SPR), dissociation constant KD
Summary of the method: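 Compound binding is evaluated by SPR single-cycle kinetics, with concentrations added intermittently from low to high for 75 s each. Target surfaces carry GDP-loaded biotinylated Avi-RAS at about 100–300 RU, regenerated after each cycle; temperature 30°C. A 1:1 binding model gives KD.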

[2] = target: GDP-bound NRAS wild-type protein (Homo sapiens, UniProt P01111); assay: Binding to NRAS by surface plasmon resonance (SPR), KD and KD ratio to KRAS
Summary of the method: as §1

[3] = system: human lung cancer strain NCI-H441; assay: NCI-H441 cell proliferation inhibitory activity (CellTiter-Glo, 4 days); format: cell-based; conditions: read-out: NCl-H441 IC50
Summary of the method: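 Readout: […] after the ATP-based reagent. Compound: serial dilutions in dimethyl sulfoxide.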

[4] = ratio of KD with respect to HRAS wild-type protein to KD with respect to KRAS
[5] = Single Cycle Kinetics, 1:1 binding model
[6] = ratio of KD with respect to GDP-bound NRAS wild-type protein to KD with respect to KRAS
[7] = 50% proliferation inhibitory concentration, four days
[8] = ratio of KD for HRAS wild-type protein to KD for KRAS
[9] = ratio of KD for GDP-bound NRAS wild-type protein to KD for KRAS

Chain of GDP-bound NRAS wild-type protein (P01111 whole entry): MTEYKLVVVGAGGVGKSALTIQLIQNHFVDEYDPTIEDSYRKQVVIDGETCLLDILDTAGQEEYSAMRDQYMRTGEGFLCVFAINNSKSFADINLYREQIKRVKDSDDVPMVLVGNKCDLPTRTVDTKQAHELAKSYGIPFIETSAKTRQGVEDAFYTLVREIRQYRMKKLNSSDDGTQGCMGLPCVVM
Chain of GDP-bound KRAS wild-type protein (P01116 1-188 isoform P01116-2): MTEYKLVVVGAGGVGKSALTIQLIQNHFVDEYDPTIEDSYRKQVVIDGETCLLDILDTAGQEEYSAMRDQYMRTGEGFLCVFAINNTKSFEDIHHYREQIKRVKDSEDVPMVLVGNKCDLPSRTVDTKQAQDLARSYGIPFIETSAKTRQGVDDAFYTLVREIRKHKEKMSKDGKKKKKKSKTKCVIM
Chain of HRAS wild-type protein (P01112 whole entry): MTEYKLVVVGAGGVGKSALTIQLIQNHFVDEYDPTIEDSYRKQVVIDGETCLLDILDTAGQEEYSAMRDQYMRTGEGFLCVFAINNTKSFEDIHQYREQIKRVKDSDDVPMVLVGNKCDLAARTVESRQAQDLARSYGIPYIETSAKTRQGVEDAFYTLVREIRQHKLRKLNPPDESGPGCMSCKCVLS

Compound | Kd [1, 5] [nM] | IC50 [3, 7] [nM] | Kd ([1]; Single Cycle Kinetics) [nM] | IC50 ([3]; NCI-H441 cells, 4 days) [nM] | Kd ([1]; 1:1 binding model) [nM] | HRAS /KRAS (HRAS wild-type protein; [4]) | NRAS /KRAS [2, 6] | HRAS /KRAS (HRAS wild-type protein; [8]) | NRAS /KRAS [2, 9]
C#CC[C@H]1C(=O)N[C@@H]([C@@H](C)CC)C(=O)N(C)CC(=O)N(C)[C@H]2CC[C@@H](C)CN(C2=O)[C@@H](Cc2ccc(C(F)(F)F)cc2)C(=O)N(C)CC(=O)N[C@@H](CCc2ccc(C(F)(F)F)c(Cl)c2)C(=O)N2CCC[C@H]2C(=O)NC2(CCCC2)C(=O)N(C)[C@@H](C2CCCC2)C(=O)N(C)[C@H](C(=O)N(C)C)CC(=O)N1C [PP1340] | 0.081 | 10.9 | – | – | – | B (a compound having 3 or more and less than 10 is denoted as B) | B (a compound having 3 or more and less than 10 is denoted as B) | – | –
CCC[C@H]1C(=O)N[C@@H](CC(C)C)C(=O)N(CCOC)CC(=O)N(C)[C@H]2C/C=C\CCN(C2=O)[C@@H](Cc2ccc(C)cc2)C(=O)N(C)CC(=O)N[C@@H](CCc2cc(F)c(C(F)(F)F)c(F)c2)C(=O)N2C[C@H](OCC)C[C@H]2C(=O)NC2(CC(C)(C)C2)C(=O)N(C)[C@@H](C2CCCC2)C(=O)N(C)[C@H](C(=O)N(C)C)CC(=O)N1C [PP2520] | – | – | – | 210 | 3.3 | – | – | A (a compound having 10 or more and less than 20 is denoted as A) | A (a compound having 10 or more and less than 20 is denoted as A)
CC[C@H](C)[C@@H]1NC(=O)[C@H](CC)N(C)C(=O)C[C@@H](C(=O)N(C)C)N(C)C(=O)[C@H](C2CCCC2)N(C)C(=O)C2(CCC2)NC(=O)[C@@H]2C[C@H](C)CN2C(=O)[C@H](CCc2cc(F)c(C(F)(F)F)c(F)c2)NC(=O)CN(C)C(=O)[C@H](CC2CCCCC2)N2CC/C=C\C[C@@H](C2=O)N(C)C(=O)CN(C)C1=O [PP1471] | 0.25 | 48.2 | – | – | – | A (a compound having 10 or more and less than 20 is denoted as A) | A (a compound having 10 or more and less than 20 is denoted as A) | – | –
CCC[C@H]1C(=O)N[C@@H](C2CCCC2)C(=O)N(C)CC(=O)N(C)[C@H]2C/C=C\CCN(C2=O)[C@@H](Cc2ccc(C)cc2)C(=O)N(C)CC(=O)N[C@@H](CCc2ccc(C(F)(F)F)c(Cl)c2)C(=O)N2CC3(CC3)C[C@H]2C(=O)NC2(CCC2)C(=O)N(C)[C@@H]([C@@H](C)CC)C(=O)N(C)[C@H](C(=O)N(C)C)CC(=O)N1C [PP3434] | – | – | 0.76 | 26.8 | – | – | – | A (a compound having 10 or more and less than 20 is denoted as A) | A (a compound having 10 or more and less than 20 is denoted as A)
CCC[C@H]1C(=O)N[C@@H]([C@@H](C)CC)C(=O)N(C)CC(=O)N(C)[C@H]2C/C=C\CCN(C2=O)[C@@H](Cc2ccc(C)cc2)C(=O)N(C)CC(=O)N[C@@H](CCc2ccc(C(F)(F)F)c(Cl)c2)C(=O)N2CC3(CC3)C[C@H]2C(=O)NC2(CCC2)C(=O)N(C)[C@@H](C(CC)CC)C(=O)N(C)[C@H](C(=O)N(C)C)CC(=O)N1C [PP3424] | – | – | 0.48 | 27.2 | – | – | – | A (a compound having 10 or more and less than 20 is denoted as A) | AA (a compound having 20 or more is denoted as AA)

More lines, main results first:

Kd [1, 5] [nM] | IC50 [3, 7] [nM] | Kd ([1]; Single Cycle Kinetics) [nM] | IC50 ([3]; NCI-H441 cells, 4 days) [nM] | Kd ([1]; 1:1 binding model) [nM] | Compound | HRAS /KRAS (HRAS wild-type protein; [4]) | NRAS /KRAS [2, 6] | HRAS /KRAS (HRAS wild-type protein; [8]) | NRAS /KRAS [2, 9]
0.2 | 12.3 | – | – | – | CCO[C@@H]1C[C@H]2C(=O)NC3(CCC3)C(=O)N(C)[C@@H](C3CCCC3)C(=O)N(C)[C@H](C(=O)N3CCOCC3)CC(=O)N(C)[C@@H](CC(C)C)C(=O)N[C@@H]([C@@H](C)CC)C(=O)N(C)CC(=O)N(C)[C@H]3C/C=C\CCN(C3=O)[C@@H](Cc3ccc(C(F)(F)F)cc3)C(=O)N(C)CC(=O)N[C@@H](CCc3cc(F)c(C(F)(F)F)c(F)c3)C(=O)N2C1 [PP1282] | A (a compound having 10 or more and less than 20 is denoted as A) | A (a compound having 10 or more and less than 20 is denoted as A) | – | –
0.12 | 27.5 | – | – | – | CC[C@H](C)[C@@H]1NC(=O)[C@H](CC)N(C)C(=O)C[C@@H](C(=O)N(C)C)N(C)C(=O)[C@H](C2CCCC2)N(C)C(=O)C2(CCC2)NC(=O)[C@@H]2CC(F)(F)CN2C(=O)[C@H](CCc2cc(F)c(C(F)(F)F)c(F)c2)NC(=O)CN(C)C(=O)[C@H](CC2CCCCC2)N2CC/C=C\C[C@@H](C2=O)N(C)C(=O)CN(C)C1=O [PP1462] | A (a compound having 10 or more and less than 20 is denoted as A) | A (a compound having 10 or more and less than 20 is denoted as A) | – | –
0.061 | 2.9 | – | – | – | CC[C@H](C)[C@@H]1NC(=O)[C@H](CC2CC2)N(C)C(=O)C[C@@H](C(=O)N(C)C)N(C)C(=O)[C@H](C2CCCC2)N(C)C(=O)C2(CCCC2)NC(=O)[C@@H]2CCCN2C(=O)[C@H](CCc2cc(F)c(C(F)(F)F)c(F)c2)NC(=O)CN(C)C(=O)[C@H](Cc2ccc(C(F)(F)F)cc2)N2C[C@H](C)[C@H](C)C[C@@H](C2=O)N(C)C(=O)CN(C)C1=O [PP1368] | B (a compound having 3 or more and less than 10 is denoted as B) | A (a compound having 10 or more and less than 20 is denoted as A) | – | –
– | – | 0.82 | 51.5 | – | CCO[C@@H]1C[C@H]2C(=O)NC3(CC(C)(C)C3)C(=O)N(C)[C@@H](C3CCCC3)C(=O)N(C)[C@H](C(=O)N(C)CC)CC(=O)N(C)[C@@H]([C@H](C)OC)C(=O)N[C@@H]([C@@H](C)CC)C(=O)N(C3CC3)CC(=O)N(C)[C@H]3C/C=C\CCN(C3=O)[C@@H](Cc3ccc(C(F)(F)F)cc3)C(=O)N(C)CC(=O)N[C@@H](CCc3ccc(C(F)(F)F)c(Cl)c3)C(=O)N2C1 [PP3221] | – | – | A (a compound having 10 or more and less than 20 is denoted as A) | A (a compound having 10 or more and less than 20 is denoted as A)
– | – | 1 | 32.1 | – | C=CCN1CC(=O)N(C)[C@H]2C/C=C\CCN(C2=O)[C@@H](Cc2ccc(C(F)F)cc2)C(=O)N(C)CC(=O)N[C@@H](CCc2ccc(C(F)(F)F)cc2Cl)C(=O)N2C[C@H](OC(C)C)C[C@H]2C(=O)N(C)C2(CCC2)C(=O)N(C)[C@@H](C(CC)CC)C(=O)N(C)[C@H](C(=O)N(C)C)CC(=O)N(C)[C@@H](CC2CC2)C(=O)N[C@@H]([C@@H](C)OCCC)C1=O [PP3493] | – | – | A (a compound having 10 or more and less than 20 is denoted as A) | AA (a compound having 20 or more is denoted as AA)
– | – | 0.23 | 6.5 | – | CCC[C@H]1C(=O)N[C@@H]([C@@H](C)CC)C(=O)N(C2CC2)CC(=O)N(C)[C@H]2C/C=C\CCN(C2=O)[C@@H](Cc2ccc(C(F)(F)F)cc2)C(=O)N(C)CC(=O)N[C@@H](CCc2ccc(C(F)(F)F)c(OC)c2)C(=O)N2CC[C@H](OC)[C@H]2C(=O)N(C)C2(CCC2)C(=O)N(C)[C@@H](C2CCCC2)C(=O)N(C)[C@H](C(=O)N(C)C)CC(=O)N1C [PP3239] | – | – | A (a compound having 10 or more and less than 20 is denoted as A) | A (a compound having 10 or more and less than 20 is denoted as A)
– | – | 2.4 | 29.3 | – | CCC[C@H]1C(=O)N[C@@H](C23CC(C2)C3)C(=O)N2CCC[C@H]2C(=O)N(C)[C@H]2C/C=C\CCN(C2=O)[C@@H](Cc2ccc(C(F)(F)F)cc2)C(=O)N(C)CC(=O)N[C@@H](CCc2ccc(C(F)(F)F)c(OC)c2)C(=O)N2C[C@H](OCC)C[C@H]2C(=O)N(C)C2(CCC2)C(=O)N(C)[C@@H](C2CCCC2)C(=O)N(C)[C@H](C(=O)N(C)C)CC(=O)N1C [PP3343] | – | – | A (a compound having 10 or more and less than 20 is denoted as A) | A (a compound having 10 or more and less than 20 is denoted as A)
